From US20090239841A1, “Diaryl Ureas as CB1 Antagonists” (priority 2004, published 2009)
Like-named read-outs stand apart in the source and are kept apart here.

Biological target: T1, hCB1 (Homo sapiens, UniProt P21554)
T1 construct: made in house; host or cells: Sf9 insect cells (baculovirus), P2 membranes
Experiment: Agonist-induced GTP binding (GTPγ35S) assay at CB1, Example 8
Type: biochemical
In short: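 Antagonism read as inhibition of 1 nM CP55,940-stimulated GTPγ35S ([…]) binding, compounds at 10^−10 to 10^−5 M. Baculovirus-infected Sf9 membranes bearing hCB1 plus G-protein subunits, 60 min room-temperature incubation with 5 μM GDP. Filtration and scintillation counting; data as percent over basal.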

[1] = IC50 at CB1, determined as described in Example 8, read-out: IC50

T1 sequence (P21554 whole entry): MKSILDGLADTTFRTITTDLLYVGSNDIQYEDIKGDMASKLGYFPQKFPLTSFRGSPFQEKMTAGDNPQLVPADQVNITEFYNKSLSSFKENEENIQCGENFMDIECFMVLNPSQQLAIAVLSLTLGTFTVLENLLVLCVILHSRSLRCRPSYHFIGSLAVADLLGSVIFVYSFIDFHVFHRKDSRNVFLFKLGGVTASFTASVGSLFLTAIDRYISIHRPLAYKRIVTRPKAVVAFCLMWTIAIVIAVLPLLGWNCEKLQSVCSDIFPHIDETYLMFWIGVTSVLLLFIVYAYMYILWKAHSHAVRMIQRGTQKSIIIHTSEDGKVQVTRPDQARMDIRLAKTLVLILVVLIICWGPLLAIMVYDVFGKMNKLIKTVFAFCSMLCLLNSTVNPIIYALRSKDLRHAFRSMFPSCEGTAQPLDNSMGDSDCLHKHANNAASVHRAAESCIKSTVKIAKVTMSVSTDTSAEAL

SMILES | IC50 [1] [nM] | IC50 [nM]
CCOc1ccc(NC(=O)Nc2ccc(S(C)(=O)=O)cc2)cc1 [Compound 596, 1-(4-ethoxyphenyl)-3-[4-(methylsulfonyl)phenyl]urea] | < 2000 | –
COc1cccc(NC(=O)Nc2ccc(C(=O)OC(C)C)cc2)c1 [Compound 597, isopropyl 4-({[(3-methoxyphenyl)amino]carbonyl}amino)benzoate] | < 2000 | –
COc1ccc(NC(=O)Nc2ccc(C(=O)OC(C)C)cc2)cc1 [Compound 598, isopropyl 4-({[(4-methoxyphenyl)amino]carbonyl}amino)benzoate] | < 2000 | –
CCOc1ccc(NC(=O)Nc2ccc(C(=O)OC(C)C)cc2)cc1 [Compound 599, isopropyl 4-({[(4-ethoxyphenyl)amino]carbonyl}amino)benzoate] | < 2000 | –
N#CCOc1ccc(NC(=O)Nc2cccc([N+](=O)[O-])c2)cc1 [Compound 600, 1-[4-(cyanomethoxy)phenyl]-3-(3-nitrophenyl)urea] | < 2000 | –
CCOC(=O)c1ccc(NC(=O)Nc2ccc(C(C)C)cc2)cc1 [Compound 602, ethyl 4-({[(4-isopropylphenyl)amino]carbonyl}amino)benzoate] | < 2000 | –
CCN(CC)C(=O)c1ccccc1NC(=O)Nc1ccc(OC(F)F)cc1 [Compound 603] | < 2000 | –
CC(C)(C)c1ccccc1NC(=O)Nc1ccc(OC(F)F)cc1 [Compound 604, 1-(2-tert-butylphenyl)-3-[4-(difluoromethoxy)phenyl]urea] | < 2000 | –
O=C(Nc1ccc(OC(F)F)cc1)Nc1ccccc1Br [Compound 605, 1-(2-bromophenyl)-3-[4-(difluoromethoxy)phenyl]urea] | < 2000 | –
Cc1ccc(NC(=O)Nc2ccc(OC(F)F)cc2)cc1F [Compound 606, 1-[4-(difluoromethoxy)phenyl]-3-(3-fluoro-4-methylphenyl)urea] | < 2000 | –
Cc1ccc(NC(=O)Nc2ccc(OC(F)(F)F)cc2)cc1F [Compound 607, 1-(3-fluoro-4-methylphenyl)-3-[4-(trifluoromethoxy)phenyl]urea] | < 2000 | –
Cc1cc(NC(=O)Nc2ccc(OC(F)F)cc2)ccc1F [Compound 608, 1-[4-(difluoromethoxy)phenyl]-3-(4-fluoro-3-methylphenyl)urea] | < 2000 | –
O=C(Nc1ccc(OC(F)F)cc1)Nc1ccc(F)c(F)c1 [Compound 609, 1-[4-(difluoromethoxy)phenyl]-3-(3,4-difluorophenyl)urea] | < 2000 | –
O=C(Nc1ccc(OC(F)(F)F)cc1)Nc1ccc2c(c1)CCC2 [Compound 610, 1-(2,3-dihydro-1H-inden-5-yl)-3-[4-(trifluoromethoxy)phenyl]urea] | < 2000 | –
Cc1ccc(NC(=O)Nc2ccc(OC(F)F)cc2)cc1Cl [Compound 611, 1-(3-chloro-4-methylphenyl)-3-[4-(difluoromethoxy)phenyl]urea] | < 2000 | –
Cc1cc(NC(=O)Nc2ccc(OC(F)F)cc2)ccc1Cl [Compound 612, 1-(4-chloro-3-methylphenyl)-3-[4-(difluoromethoxy)phenyl]urea] | < 2000 | –
COc1cccc(NC(=O)Nc2ccc(C)c(F)c2)c1 [Compound 614, 1-(3-fluoro-4-methylphenyl)-3-(3-methoxyphenyl)urea] | < 2000 | –

SMILES | IC50 [1] [nM] | IC50 [nM]
COc1ccc(NC(=O)Nc2ccc(C)c(F)c2)cc1 [Compound 615, 1-(3-fluoro-4-methylphenyl)-3-(4-methoxyphenyl)urea] | < 2000 | –
CCOc1ccc(NC(=O)Nc2ccc(C)c(F)c2)cc1 [Compound 616, 1-(4-ethoxyphenyl)-3-(3-fluoro-4-methylphenyl)urea] | < 2000 | –
CCOc1ccc(NC(=O)Nc2ccc(F)c(C)c2)cc1 [Compound 617, 1-(4-ethoxyphenyl)-3-(4-fluoro-3-methylphenyl)urea] | < 2000 | –
CCOc1ccc(NC(=O)Nc2ccc(F)c(F)c2)cc1 [Compound 619, 1-(3,4-difluorophenyl)-3-(4-ethoxyphenyl)urea] | < 2000 | –
COc1ccc(NC(=O)Nc2ccc3c(c2)CCC3)cc1 [Compound 620, 1-(2,3-dihydro-1H-inden-5-yl)-3-(4-methoxyphenyl)urea] | < 2000 | –
COc1cccc(NC(=O)Nc2ccc(C)c(Cl)c2)c1 [Compound 621, 1-(3-chloro-4-methylphenyl)-3-(3-methoxyphenyl)urea] | < 2000 | –
COc1ccc(NC(=O)Nc2ccc(C)c(Cl)c2)cc1 [Compound 622, 1-(3-chloro-4-methylphenyl)-3-(4-methoxyphenyl)urea] | < 2000 | –
CCOc1ccc(NC(=O)Nc2ccc(Cl)c(C)c2)cc1 [Compound 623, 1-(4-chloro-3-methylphenyl)-3-(4-ethoxyphenyl)urea] | < 2000 | –
CCOc1ccc(NC(=O)Nc2ccc(Cl)c(Cl)c2)cc1 [Compound 624, 1-(3,4-dichlorophenyl)-3-(4-ethoxyphenyl)urea] | < 2000 | –
CCOc1ccc(NC(=O)Nc2ccc(Cl)c(C(F)(F)F)c2)cc1 [Compound 625, 1-[4-chloro-3-(trifluoromethyl)phenyl]-3-(4-ethoxyphenyl)urea] | < 2000 | –
Cc1ccc(NC(=O)Nc2ccc(C(C)C)cc2)cc1F [Compound 626, 1-(3-fluoro-4-methylphenyl)-3-(4-isopropylphenyl)urea] | < 2000 | –
O=C(Nc1ccc(OC(F)F)cc1)Nc1cnccn1 [Compound 627, 1-[4-(difluoromethoxy)phenyl]-3-pyrazin-2-ylurea] | < 2000 | –
O=C(Nc1ccc(OC(F)F)cc1)Nc1ccnc(Cl)c1 [Compound 628, 1-(2-chloropyridin-4-yl)-3-[4-(difluoromethoxy)phenyl]urea] | – | < 2000
CCOc1ccc(NC(=O)Nc2ccc(Cl)nc2)cc1 [Compound 629, 1-(6-chloropyridin-3-yl)-3-(4-ethoxyphenyl)urea] | < 2000 | –
CC(C)c1ccc(NC(=O)Nc2ccc(Cl)nc2)cc1 [Compound 630, 1-(6-chloropyridin-3-yl)-3-(4-isopropylphenyl)urea] | < 2000 | –
O=C(Nc1ccc(OC(F)F)cc1)Nc1ccccn1 [Compound 631, 1-[4-(difluoromethoxy)phenyl]-3-pyridin-2-ylurea] | < 2000 | –
Cc1cccnc1NC(=O)Nc1ccc(OC(F)F)cc1 [Compound 632, 1-[4-(difluoromethoxy)phenyl]-3-(3-methylpyridin-2-yl)urea] | < 2000 | –

The next lines start with results.

IC50 [1] [nM] | SMILES | IC50 [nM]
< 2000 | CC(C)Oc1cccc(NC(=O)Nc2ccc(C(C)C)cc2)c1 [Compound 574, 1-(3-isopropoxyphenyl)-3-(4-isopropylphenyl)urea] | –
< 2000 | CC(C)Oc1ccc(NC(=O)Nc2ccc(C(C)C)cc2)cc1 [Compound 575, 1-(4-isopropoxyphenyl)-3-(4-isopropylphenyl)urea] | –
< 2000 | CC(C)c1ccccc1NC(=O)Nc1cccc(OC(F)F)c1 [Compound 576, 1-[3-(difluoromethoxy)phenyl]-3-(2-isopropylphenyl)urea] | –
< 2000 | CC(C)c1ccc(NC(=O)Nc2cccc(OC(F)F)c2)cc1 [Compound 577, 1-[3-(difluoromethoxy)phenyl]-3-(4-isopropylphenyl)urea] | –
< 2000 | CCCc1ccccc1NC(=O)Nc1cccc(OC(F)F)c1 [Compound 578, 1-[3-(difluoromethoxy)phenyl]-3-(2-propylphenyl)urea] | –
< 2000 | N#CCc1ccc(NC(=O)Nc2ccc(OC(F)F)cc2)cc1 [Compound 581, 1-[4-(cyanomethyl)phenyl]-3-[4-(difluoromethoxy)phenyl]urea] | –
< 2000 | N#CCOc1ccc(NC(=O)Nc2ccc(OC(F)F)cc2)cc1 [Compound 582, 1-[4-(cyanomethoxy)phenyl]-3-[4-(difluoromethoxy)phenyl]urea] | –
< 2000 | CCOC(=O)c1ccc(NC(=O)Nc2ccc(OC(F)F)cc2)cc1 [Compound 583, ethyl 4-[({[4-(difluoromethoxy)phenyl]amino}carbonyl)amino]benzoate] | –
< 2000 | CC(C)OC(=O)c1ccc(NC(=O)Nc2ccc(OC(F)F)cc2)cc1 [Compound 584, isopropyl 4-[({[4-(difluoromethoxy)phenyl]amino}carbonyl)amino]benzoate] | –
< 2000 | COc1cccc(NC(=O)Nc2ccc(CC#N)cc2)c1 [Compound 585, 1-[4-(cyanomethyl)phenyl]-3-(3-methoxyphenyl)urea] | –
< 2000 | COc1ccc(NC(=O)Nc2ccc(CC#N)cc2)cc1 [Compound 586, 1-[4-(cyanomethyl)phenyl]-3-(4-methoxyphenyl)urea] | –
< 2000 | CCOc1ccc(NC(=O)Nc2ccc(CC#N)cc2)cc1 [Compound 587, 1-[4-(cyanomethyl)phenyl]-3-(4-ethoxyphenyl)urea] | –
< 2000 | COc1cccc(NC(=O)Nc2ccc(OCC#N)cc2)c1 [Compound 588, 1-[4-(cyanomethoxy)phenyl]-3-(3-methoxyphenyl)urea] | –
< 2000 | COc1ccc(NC(=O)Nc2ccc(OCC#N)cc2)cc1 [Compound 589, 1-[4-(cyanomethoxy)phenyl]-3-(4-methoxyphenyl)urea] | –
< 2000 | CCOc1ccc(NC(=O)Nc2ccc(OCC#N)cc2)cc1 [Compound 590, 1-[4-(cyanomethoxy)phenyl]-3-(4-ethoxyphenyl)urea] | –
< 2000 | CCC(=O)c1ccc(NC(=O)Nc2cccc(OC)c2)cc1 [Compound 591, 1-(3-methoxyphenyl)-3-(4-propionylphenyl)urea] | –
< 2000 | CCOC(=O)c1ccc(NC(=O)Nc2cccc(OC)c2)cc1 [Compound 593, ethyl 4-({[(3-methoxyphenyl)amino]carbonyl}amino)benzoate] | –
< 2000 | CCOC(=O)c1ccc(NC(=O)Nc2ccc(OC)cc2)cc1 [Compound 594, ethyl 4-({[(4-methoxyphenyl)amino]carbonyl}amino)benzoate] | –
< 2000 | CCOC(=O)c1ccc(NC(=O)Nc2ccc(OCC)cc2)cc1 [Compound 595, ethyl 4-({[(4-ethoxyphenyl)amino]carbonyl}amino)benzoate] | –
